How the values were obtained:
[1] = target: Epidermal growth factor receptor (Homo sapiens, UniProt P00533, E746-A750DEL); experiment: Inhibition of EGFR E746-A750 deletion mutant in human PC9 cells assessed as inhibition of phosphorylation at Y1068 after 2 hrs by sandwich ELISA method; type: cell-based, PC-9
[2] = target: T1, Epidermal growth factor receptor (Homo sapiens, UniProt P00533); experiment: Inhibition of EGFR deletion/T790M mutant in human PC9-DRH cells assessed as inhibition of phosphorylation at Y1068 after 2 hrs by sandwich ELISA method; type: cell-based
Target sequence in this assay (P00533 25-1210 limits assumed, stated change not applied): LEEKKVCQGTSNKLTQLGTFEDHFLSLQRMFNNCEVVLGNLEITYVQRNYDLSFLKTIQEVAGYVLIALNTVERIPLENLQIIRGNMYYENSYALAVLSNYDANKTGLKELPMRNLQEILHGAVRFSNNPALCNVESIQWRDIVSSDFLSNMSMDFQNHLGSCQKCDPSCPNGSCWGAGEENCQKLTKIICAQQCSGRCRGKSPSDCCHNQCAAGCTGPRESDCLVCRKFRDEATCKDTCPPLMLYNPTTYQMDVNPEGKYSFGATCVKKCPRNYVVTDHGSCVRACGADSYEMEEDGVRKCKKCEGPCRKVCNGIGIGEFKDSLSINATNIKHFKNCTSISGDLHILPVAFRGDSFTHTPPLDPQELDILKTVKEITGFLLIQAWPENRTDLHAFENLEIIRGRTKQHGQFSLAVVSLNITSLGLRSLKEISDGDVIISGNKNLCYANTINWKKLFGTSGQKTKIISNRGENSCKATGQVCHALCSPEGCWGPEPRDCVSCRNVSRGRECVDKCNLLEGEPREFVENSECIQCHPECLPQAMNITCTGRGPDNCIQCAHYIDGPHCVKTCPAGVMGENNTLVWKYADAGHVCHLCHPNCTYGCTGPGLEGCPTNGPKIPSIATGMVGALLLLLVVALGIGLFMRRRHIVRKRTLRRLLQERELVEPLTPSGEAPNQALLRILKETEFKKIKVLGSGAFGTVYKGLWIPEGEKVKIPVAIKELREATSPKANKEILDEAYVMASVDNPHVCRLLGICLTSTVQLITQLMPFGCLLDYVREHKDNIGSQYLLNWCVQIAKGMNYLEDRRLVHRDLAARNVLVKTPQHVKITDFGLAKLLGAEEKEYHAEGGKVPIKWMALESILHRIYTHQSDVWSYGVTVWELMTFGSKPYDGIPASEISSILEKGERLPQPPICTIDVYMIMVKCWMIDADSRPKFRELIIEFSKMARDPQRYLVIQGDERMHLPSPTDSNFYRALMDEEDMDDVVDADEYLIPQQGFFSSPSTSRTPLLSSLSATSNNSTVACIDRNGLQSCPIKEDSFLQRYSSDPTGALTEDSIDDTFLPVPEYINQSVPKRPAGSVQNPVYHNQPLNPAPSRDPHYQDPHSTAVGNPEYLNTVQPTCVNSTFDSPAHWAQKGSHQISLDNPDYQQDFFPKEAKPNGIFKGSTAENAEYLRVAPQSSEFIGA

[3] = target: T1, Epidermal growth factor receptor; experiment: Inhibition of wild type EGFR in human A549 cells assessed as inhibition of phosphorylation at Y1068 after 2 hrs by sandwich ELISA method; type: cell-based
Target sequence in this assay (P00533 whole entry): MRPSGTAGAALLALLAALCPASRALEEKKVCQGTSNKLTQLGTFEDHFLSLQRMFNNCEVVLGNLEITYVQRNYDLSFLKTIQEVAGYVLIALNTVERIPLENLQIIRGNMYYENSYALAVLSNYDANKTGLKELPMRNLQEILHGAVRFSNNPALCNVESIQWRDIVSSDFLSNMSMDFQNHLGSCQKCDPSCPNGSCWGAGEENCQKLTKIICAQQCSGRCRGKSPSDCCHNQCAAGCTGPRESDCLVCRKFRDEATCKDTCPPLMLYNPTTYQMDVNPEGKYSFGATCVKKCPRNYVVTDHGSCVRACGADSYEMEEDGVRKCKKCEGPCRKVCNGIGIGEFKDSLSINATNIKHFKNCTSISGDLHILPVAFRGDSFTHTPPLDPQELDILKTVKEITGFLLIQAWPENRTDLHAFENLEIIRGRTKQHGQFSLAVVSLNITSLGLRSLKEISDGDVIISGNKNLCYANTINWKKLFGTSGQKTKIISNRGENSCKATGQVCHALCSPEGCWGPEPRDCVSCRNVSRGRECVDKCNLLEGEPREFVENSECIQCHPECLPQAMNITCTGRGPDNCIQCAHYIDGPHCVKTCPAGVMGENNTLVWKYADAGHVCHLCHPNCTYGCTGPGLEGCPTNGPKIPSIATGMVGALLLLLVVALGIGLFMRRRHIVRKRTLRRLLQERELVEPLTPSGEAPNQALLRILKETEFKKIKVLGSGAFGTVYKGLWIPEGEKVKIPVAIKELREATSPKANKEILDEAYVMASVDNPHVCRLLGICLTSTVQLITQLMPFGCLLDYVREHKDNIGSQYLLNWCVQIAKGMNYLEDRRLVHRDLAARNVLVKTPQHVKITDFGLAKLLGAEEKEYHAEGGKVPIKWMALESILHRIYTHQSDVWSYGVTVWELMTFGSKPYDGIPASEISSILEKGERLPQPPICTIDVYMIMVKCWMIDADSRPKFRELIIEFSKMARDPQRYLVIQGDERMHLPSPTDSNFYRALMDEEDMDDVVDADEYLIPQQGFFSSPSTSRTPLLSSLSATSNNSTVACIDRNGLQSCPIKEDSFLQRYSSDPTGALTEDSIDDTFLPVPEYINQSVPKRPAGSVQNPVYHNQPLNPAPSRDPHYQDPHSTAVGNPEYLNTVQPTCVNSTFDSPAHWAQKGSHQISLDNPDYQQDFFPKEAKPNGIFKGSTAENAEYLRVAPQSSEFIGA

Epidermal growth factor receptor (Homo sapiens, UniProt P00533, E746-A750DEL), sequence (P00533 whole entry E746-A750del, looked up): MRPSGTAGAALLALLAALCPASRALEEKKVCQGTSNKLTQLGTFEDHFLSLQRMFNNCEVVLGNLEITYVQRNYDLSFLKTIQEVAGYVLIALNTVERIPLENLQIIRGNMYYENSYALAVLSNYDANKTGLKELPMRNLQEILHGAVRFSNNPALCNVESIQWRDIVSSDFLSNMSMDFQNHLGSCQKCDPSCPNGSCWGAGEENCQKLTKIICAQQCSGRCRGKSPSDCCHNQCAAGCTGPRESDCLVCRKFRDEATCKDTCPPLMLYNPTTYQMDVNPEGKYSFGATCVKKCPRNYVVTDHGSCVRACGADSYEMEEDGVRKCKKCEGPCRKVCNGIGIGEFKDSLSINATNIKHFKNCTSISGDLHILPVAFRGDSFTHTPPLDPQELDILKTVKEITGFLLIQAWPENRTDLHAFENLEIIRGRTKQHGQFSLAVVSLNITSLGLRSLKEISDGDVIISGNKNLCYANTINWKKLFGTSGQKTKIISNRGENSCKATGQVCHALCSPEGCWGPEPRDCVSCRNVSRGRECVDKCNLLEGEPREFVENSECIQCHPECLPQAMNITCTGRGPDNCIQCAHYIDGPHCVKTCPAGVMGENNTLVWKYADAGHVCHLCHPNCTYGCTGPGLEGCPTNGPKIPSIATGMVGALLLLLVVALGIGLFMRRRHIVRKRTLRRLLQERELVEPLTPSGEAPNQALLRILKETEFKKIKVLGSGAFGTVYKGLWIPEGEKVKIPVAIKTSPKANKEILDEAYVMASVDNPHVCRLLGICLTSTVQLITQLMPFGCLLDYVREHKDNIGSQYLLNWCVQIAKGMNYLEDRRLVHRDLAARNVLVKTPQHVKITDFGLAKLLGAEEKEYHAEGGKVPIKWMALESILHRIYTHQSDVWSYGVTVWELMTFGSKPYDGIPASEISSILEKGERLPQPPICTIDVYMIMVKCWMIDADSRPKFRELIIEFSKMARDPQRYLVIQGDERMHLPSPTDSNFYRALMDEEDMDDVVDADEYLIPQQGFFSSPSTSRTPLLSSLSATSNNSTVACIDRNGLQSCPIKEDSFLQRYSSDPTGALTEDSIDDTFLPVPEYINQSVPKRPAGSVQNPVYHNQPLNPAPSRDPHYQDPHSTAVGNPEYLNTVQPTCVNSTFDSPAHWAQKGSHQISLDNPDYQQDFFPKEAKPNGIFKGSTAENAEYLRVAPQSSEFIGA

## C=CC(=O)N1C[C@@H]2CN(c3nc(Nc4ccc(N5CCN(C)CC5)cc4)c4ncn(C(C)C)c4n3)C[C@@H]2C1
[1]
  IC50: 0.008 µM
[2]
  IC50: 0.018 µM

## C=CC(=O)N[C@H]1CCN(c2nc(Nc3ccc(N4CCN(C)CC4)cc3)c3ncn(CCO)c3n2)C1
[1]
  IC50: 0.031 µM

## C=CC(=O)N[C@@H]1CN(c2nc(Nc3cn(C)nc3C)c3ncn(C(C)C)c3n2)C[C@H]1F
[1]
  IC50: 6.65 µM
[2]
  IC50: 2.13 µM
[3]
  IC50: 10 µM

## C=CC(=O)N[C@@H]1CN(c2nc(Nc3cn(CC)nc3OC)c3ncn(C)c3n2)C[C@H]1F
[1]
  IC50: 0.006 µM
[2]
  IC50: 0.001 µM

From ChEMBL document CHEMBL3608213, “Inhibitors of the Epidermal Growth Factor Receptor (EGFR) May Provide Effective Treatment for Lung Adenocarcinoma” (ACS Med Chem Lett, 2015)
